What is called pKi is −log10 of the Ki, conventionally taken in molar units.

pKi: −log10 of the molar value. Where “and” joins values, the source holds several entries; their conditions need not be identical. Identical values can stand only once.

The target in one test is T1, CB1 cannabinoid receptor (Homo sapiens, UniProt P21554).
T1 construct: expressed in transfected cells; host or cells: HEK293
Description: CB1 competition-equilibrium binding using [3H]CP-55,940. Conditions: competition binding with [3H]CP-55,940; FIG. 1: hCB1-HEK292 cells; read-out: CB1 cannabinoid receptor binding affinity (Ki). The method, then: (§1) HEK293 cells expressing hCB1, hCB2 or mCB2 receptor are used for membrane preparations according to the method described in J Neurochem 1999, 72, (5), 2032-8, herein incorporated by reference in its entirety. The resulting pellet is resuspended in 10 mM Tris-chloride, pH 7.4 with 5 mM MgCl2 and 2 mM EDTA (TME), and stored at −80° C. for no longer than two months. Protein content is assayed by using the Bio-Rad DC protein assay according to the manufacturer's protocol.
Frozen rat brains (CB1 source) are obtained from Pel-Freeze Biologicals (Rogers, Ak.) and stored at −80° C. until use. […]
(§2) The compound was tested for its ability to bind to CB1 and CB2 receptors using rat brain or HEK293 cell membranes expressing hCB2 and mCB2 membrane preparations, respectively, as described in J Med Chem 1999, 42, (4), 769-776, J Med Chem 1994, 37, (23), 3867-70 and Life Sci 1995, 56, (23-24), 1957-62 (each herein incorporated by reference in its entirety) via competition-equilibrium binding using [^3H]CP-55,940. The results were analyzed using nonlinear regression to determine the actual IC50 of the ligand (Prizm by GraphPad Software, Inc.) and the Ki values are calculated from the IC50 as described in Biochemical Pharmacology 1973, 22, (23), 3099-3108; herein incorporated by reference in its entirety.

Another test addresses T2, CB1 (Mus musculus, UniProt P47746).
T2 construct: tissue Charles River; host or cells: whole animal, male CD-1 mice
Description: in vivo CB1 antagonism (hypothermia) in male CD1 mice. Conditions: 10 mg/kg i.p. test compound, 30 mg/kg Δ9-THC, male CD-1 mice, rectal temperature. As for the experimental part:
Male CD-1 mice (Charles River, Wilmington, Mass., USA) aged 4-6 weeks weighing between 25-35 gm were chosen for in vivo CB1 antagonism testing. The mice were housed 4 per cage with free access to food and water. The temperature of the vivarium was 25° C. with a non-reversed 12 hrs light/dark cycle (lights on 7 am). Mice were habituated to the vivarium for at least one week before any experiments were performed. All experimental procedures were pre-approved by The Animal Care and Use Committee of Northeastern University, Boston, Mass., USA. The “Principles of Animal Laboratory Care” (National Institute of Health 1996) was followed. The test compound (10 mg/kg) was dissolved in 4% dimethyl sulfoxide, followed by 8% Tween-80 and 8% propylene glycol. Saline was added slowly to this solution with sonication prior to administration. Δ^9-THC was initially dissolved in 2% dimethyl sulfoxide, followed by 4% Tween-80 and 4% propylene glycol. Saline was added slowly to this drug solution with sonication prior to administration. All administrations were i.p. at a volume of 10 ml/kg. […] Core temperature was measured using a rectal probe of a digital laboratory thermometer, RET-3-ISO, type T thermocouple (Physitemp Instruments Inc., Clifton, N.J.). The probe was inserted 2 cm into the rectum for ≈20 to 30 seconds at which time the rectal temperature readings had stabilized.

The next test concerns C57BL/6 mice. Description: diabetic (STZ) high-fat diet mouse NASH model. The class given is in vivo. The settings on record: 10 mg/kg PO daily; for fibrosis scores: vs control group. As for the experimental part:
Timed pregnant female C57BL/6 mice (Jackson Laboratories, USA) were obtained and housed with a cardboard hut for birthing and nursing of pups (enrichment), in an AAALAC-accredited vivarium, prefilled with corn cob bedding on a 12-hour light-dark at 68-74° F. and 30-70% humidity. Pregnant female mice were fed water and a standard rodent diet (Teklad irradiated 2918) ad libitum consisting of 18% protein, 5% fat, and 5% fiber. Three days post birth, pups from all litters received streptozotocin (STZ), i.p. at 200 mg/kg, to induce a mild to moderate hyperglycemia and insulin insufficiency. Random blood glucose was measured at weaning when pups were 25 days old. At weaning, mice were fed water and a standard rodent diet (Teklad irradiated 2918) ad libitum consisting of 18% protein, 5% fat, and 5% fiber. At 4 weeks of age, male mice were randomized into 7 study groups based on a random blood glucose (RBG) between 200-750 mg/dl and were switched from the standard rodent diet to the modified high fat diet (HFD), Research Diets D09100310 for the remainder of the study. Following 3 weeks of HFD feeding, test article and vehicle control dose administration was initiated and continued for up to 9 weeks. Body weights were measured at least twice a week from dose initiation through study end/termination. HFD was changed weekly with the old food being discarded. Animals had random blood glucose measured every 3 weeks and at termination. Clinical observations were performed daily from receipt/birth and continued through study end. Compound 1 and rimonabant were stored at −20° C. prior to drug preparation. Following three weeks of modified diet feeding, dose initiation of the compounds began and continued for up to 9 weeks. Test compounds were dissolved in 2% dimethyl sulfoxide, followed by 8% Tween-80 and 8% propylene glycol. Saline was added slowly to this solution with sonication prior to administration. Animals were dosed at 10 mg/kg via oral gavage (PO), daily, for up to 9 weeks.
Livers were scored for both NAS and NASH parameters. […] Fibrosis was observed across all study groups. […] Lobular inflammation was present across all NASH study groups thus indicating inflammatory cell infiltration. Following 9 weeks of treatment with Compound 1, lobular inflammation was reduced.

The target of a further test is CB2 cannabinoid receptor (UniProt P34972). Description: CB2 competition-equilibrium binding using [3H]CP-55,940. Conditions: competition binding with [3H]CP-55,940; read-out: CB2 cannabinoid receptor binding affinity (Ki). As for the experimental part:
as §1, §2

T1 sequence (P21554 whole entry): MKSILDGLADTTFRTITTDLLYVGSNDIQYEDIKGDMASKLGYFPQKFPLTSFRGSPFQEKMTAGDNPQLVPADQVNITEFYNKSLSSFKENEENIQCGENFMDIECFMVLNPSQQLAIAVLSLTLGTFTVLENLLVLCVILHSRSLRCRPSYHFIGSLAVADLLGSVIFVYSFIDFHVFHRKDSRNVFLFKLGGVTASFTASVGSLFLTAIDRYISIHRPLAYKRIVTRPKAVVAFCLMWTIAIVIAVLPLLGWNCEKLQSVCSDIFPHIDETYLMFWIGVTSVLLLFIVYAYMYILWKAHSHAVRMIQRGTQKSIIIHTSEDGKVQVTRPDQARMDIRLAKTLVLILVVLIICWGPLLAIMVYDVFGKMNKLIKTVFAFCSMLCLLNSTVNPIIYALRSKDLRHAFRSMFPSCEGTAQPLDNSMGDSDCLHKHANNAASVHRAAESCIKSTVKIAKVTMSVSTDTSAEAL
T2 sequence (P47746 whole entry): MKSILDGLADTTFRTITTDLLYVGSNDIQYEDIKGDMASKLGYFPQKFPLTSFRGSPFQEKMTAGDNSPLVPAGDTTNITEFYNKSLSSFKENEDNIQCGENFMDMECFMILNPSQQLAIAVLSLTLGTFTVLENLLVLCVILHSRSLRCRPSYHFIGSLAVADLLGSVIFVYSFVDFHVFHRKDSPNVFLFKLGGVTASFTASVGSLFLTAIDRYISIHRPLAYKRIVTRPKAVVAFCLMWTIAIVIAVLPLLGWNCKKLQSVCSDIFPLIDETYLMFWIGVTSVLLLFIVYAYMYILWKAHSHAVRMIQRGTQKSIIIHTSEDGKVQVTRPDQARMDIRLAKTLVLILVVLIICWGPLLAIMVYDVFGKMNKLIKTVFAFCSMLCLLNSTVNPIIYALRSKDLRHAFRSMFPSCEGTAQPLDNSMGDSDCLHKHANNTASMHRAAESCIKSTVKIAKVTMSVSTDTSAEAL

As to `Cc1c(C(=O)NN2CCS(=O)(=O)CC2)nc(-c2ccc(Cl)cc2Cl)n1-c1ccc(C#CCCC#N)cc1` [Compound 1, 1-(4-(4-cyanobut-1-yn-1-yl)phenyl)-2-(2,4-dichlorophenyl)-N-(1,1-dioxidothiomorpholino)-5-methyl-1H-imidazole-4-carboxamide], on CB1 cannabinoid receptor, the pKi is 9.00 and ~9.00. Also, at CB1, the “antagonism of hypothermic effects induced by the CB1 agonist Δ9-THC” value is listed as “inability of 10 mg/kg of compound 1 to antagonize the hypothermic effects”. In addition, in the test on C57BL/6 mice (9 weeks of treatment, liver), the lobular inflammation result is “reduced”, the steatosis result is recorded as “decreased” and the fibrosis scores result was “statistically significant when compared to the control group”. In the test with C57BL/6 mice (up to 9 weeks), the “inflammation and fibrosis (overall)” value was “markedly attenuated or delayed the inflammation and fibrosis”. Further, the animal survival result in the test on C57BL/6 mice (up to 9 weeks, compared to rimonabant) is given as “increased animal survival as compared to rimonabant”. Moreover, the pKi on CB2 cannabinoid receptor was less than 6.00.
With `Cc1c(C(=O)NN2CCCCC2)nn(-c2ccc(Cl)cc2Cl)c1-c1ccc(Cl)cc1` [rimonabant, 5-(4-chlorophenyl)-1-(2,4-dichlorophenyl)-4-methyl-N-(piperidin-1-yl)-1H-pyrazole-3-carboxamide, reference compound], in the test with C57BL/6 mice (9 weeks of treatment, liver), the steatosis entry is “decreased” and the fibrosis scores result is reported as “statistically significant when compared to the control group”.
